In US10654838B2, “Aminopyridine compounds useful as inhibitors of protein prenylation” (INSTITUT NATIONAL DE LA SANTE ET DE LA RECHERCHE MEDICALE …, priority 2014, dated 2020):

Key:
HDJ2 = assay: Western blot analysis of HDJ2 farnesylation; type: cell-based, human
HGPS MSCs = assay: Nuclear shape abnormalities (lamin A/C immunostaining); type: cell-based, human; details: 48 h, lamin A/C staining
Experimental: In the 4-steps protocol, cells were fixed in 4% paraformaldehyde (15 minutes, room temperature) before permeabilization and blocking in PBS supplemented with 0.1% triton X-100 and 1% BSA (Sigma-Aldrich, St. Louis, USA). Primary antibodies were incubated one hour at room temperature in blocking buffer. Antibodies included mouse anti-lamins A/C (clone JOL2, Millipore, Billerica, USA), rabbit anti-prelamin A (ANTOO45, Diatheva) and anti-Ki67 (clone Ki-S5, MAB4190, Millipore, Billerica, USA). Cells were stained with the species-specific fluorophore-conjugated secondary antibody (Invitrogen) (one hour, room temperature) and nuclei were visualized with Hoechst 33342.

HMGCR = target: T1, HMGCR (Homo sapiens, UniProt P04035); assay: HMGCR colorimetric activity assay; type: biochemical
T1 construct: oxidation of NADPH by the catalytic subunit of HMGCR in the presence of the substrate HMG CoA; purchased Sigma-Aldrich
T1 sequence (P04035 340-888 limits assumed): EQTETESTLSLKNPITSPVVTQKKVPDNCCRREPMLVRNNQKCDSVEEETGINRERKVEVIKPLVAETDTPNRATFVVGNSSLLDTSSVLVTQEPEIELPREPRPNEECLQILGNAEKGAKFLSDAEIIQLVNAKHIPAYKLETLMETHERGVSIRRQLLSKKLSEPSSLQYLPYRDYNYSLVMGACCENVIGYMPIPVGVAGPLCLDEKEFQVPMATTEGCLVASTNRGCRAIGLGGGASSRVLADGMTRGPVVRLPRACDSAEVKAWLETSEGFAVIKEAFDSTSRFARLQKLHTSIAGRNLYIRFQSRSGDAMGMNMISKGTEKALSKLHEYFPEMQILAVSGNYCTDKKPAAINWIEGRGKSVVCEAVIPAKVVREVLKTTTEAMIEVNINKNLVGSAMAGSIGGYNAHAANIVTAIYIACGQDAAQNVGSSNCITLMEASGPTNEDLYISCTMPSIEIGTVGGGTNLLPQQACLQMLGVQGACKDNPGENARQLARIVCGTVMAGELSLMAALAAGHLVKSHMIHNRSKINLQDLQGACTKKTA
Experimental: HMGCR activity was measured using GCoA Reductase Assay Kit (Sigma-Aldrich) according to the manufacturer's protocol. The assay is based on the spectrophotometric measurement of the decrease in absorbance at 340 nm, which represents the oxidation of NADPH by the catalytic subunit of HMGCR in the presence of the substrate HMG CoA.

IC50 (μM) HMGCR (HMGCR): No inhibition
SMILES: N#CC(c1ccccn1)c1ccnc(N2CCN(Cc3ccccc3F)CC2)n1 (stereo not drawn) [Mono-AP1, {2-[4-(2-fluoro-benzyl)-piperazin-1-yl]-pyrimidin-4-yl}-pyridin-2-yl-acetonitrile]
unfarnesylated form of HDJ2 (HDJ2): increase of the unfarnesylated form of the protein
rescue of nuclear shape abnormalities (HGPS MSCs): restoring HGPS MSCs nuclear shape defects at levels not significantly different from the FTI tipifarnib
